Source: patent US8455437B2, “Method to predict and prevent oxygen-induced inflammatory tissue injury” (The United States of America, as Represented by the …, priority 2005, dated 2013)

Key:
[1] = system: mice with acute inflammatory lung injury; settings: mouse, in vivo
[2] = system: oxygenated mice with inflammatory lung injury; settings: mouse, in vivo
[3] = system: endotoxin-treated mice; assay: Lung injury in endotoxin-treated mice; format: in vivo
[4] = system: A2AR gene deficient mice; assay: Selectivity control: lung inflammation in A2AR gene deficient mice; format: in vivo; settings: dosing regimen used to treat WT mice (data not shown)
Description: Thus, the exogenously added selective, synthetic A2AR agonist compensated for the loss of endogenously formed adenosine in oxygenated and inflamed lungs thereby decreasing lung injury and rescuing mice from death.

[5] = i.t. injections, endotoxin-treated mice (data not shown)

SMILES | BAL fluid protein [1] | alveolo-capillary permeability (protein recovered by broncho-alveolar lavage) [1] | arterial pO2 after return to normal atmosphere [1] | death in short-term assays [1] | deaths of mice with inflamed lungs versus 21% ambient oxygen [1] | inflammatory lung injury (exudate protein in alveolar spaces, arterial blood oxygen tension) [1] | mice that died during 15 min equilibration period in normal atmosphere [1] | number of deaths (oxygenation-induced death) [2] | pulmonary PMN sequestration ([3]; histological examination) | lung tissue damage as assessed by lung injury score ([3]; histological examination (not shown)) | accumulation of PMN [3, 5] | lung gas exchange [3, 5] | lung injury [3, 5] | lung vascular permeability [3, 5] | production of reactive oxygen metabolites [3, 5] | lung inflammation in A2AR gene deficient mice [4]
O=O [oxygen] | small accumulation | much more pronounced increase | decrease | did not result in death | Five times more | exacerbation | three out of seven | – | – | – | – | – | – | – | – | –
CCNC(=O)[C@H]1O[C@@H](n2cnc3c(N)nc(NCCc4ccc(CCC(=O)O)cc4)nc32)[C@H](O)[C@@H]1O [CGS21680] | – | – | – | – | – | – | – | dramatically reduced | inhibition | fourfold decrease | significantly decreased | improved | significantly inhibited | less pronounced increases | reduced | did not affect
